Laboratory results as given in patent US20030203969A1, “Pharmaceutically active aromatic guanylhydrazones” (priority 2000, published 2003).
Read-outs that look alike come from different tables or passages of the source.

How the values were obtained:
[1] = test system: NRTI + PI-resistant HIV-1; test: Inhibition of multiple anti-retroviral drug resistant HIV-1 strains: NRTI + PI-resistant; type: cell-based
Description: In addition, various different “types” of multiple anti-retroviral drug resistant HIV-1 strains were also tested: […]

[2] = test system: HIV; test: Relevant HIV cellular systems (summary statements); type: cell-based
From the text: Thus another aspect of the present invention is directed to the use of the compounds of the general formula (I) and/or pharmaceutically active salts as inhibitors of elF-5A activation and HIV replication.
The present invention therefore provides a genus of guanylhydrazone-substituted compounds that are useful as inhibitors of HIV-1, HIV-2, HTLV-I as well as for treating diseases associated with those viruses.

[3] = test system: MRC-5 (human embryonic lung fibroblast) cells; test: Drug toxicity in MRC-5 cells (CellTiter 96); type: cell-based; conditions: six day incubation, read-out: TC50 (the source's name)
Description: Drug toxicity is determined in parallel by seeding MRC-5 cells in 96 well plates and adding drugs to triplicate wells at two dilutions. After a six day incubation period, cell viability is determined using CellTiter 96 Aqueous One Solution (Promega).

[4] = test system: Vero cells; test: Cytotoxicity in uninfected Vero cells (HSV-1 experiments, MTS); type: cell-based, African green monkey; conditions: inhibits cell growth by 50%, read-out: TC50 (the source's name)
From the text: (§1) A virus-induced cytopathic effects (CPE)-inhibition assay procedure using Promega's Cell Titer Aqueous One Solution (MTS, metabolic dye) is employed to evaluate compounds for antiviral activity against herpes simplex virus type 1 (strain HF) in Vero cells (African green monkey cells, ATCC Cat. No. CCL-81). Vero cells are pregrown in 96-well tissue culture plates using Dulbecco's Modified Eagle's Medium (DMEM) supplemented with 10% heat-inactivated fetal bovine serum (FBS), L-glutamine, penicillin, and streptomycin. To each of the replicate cell cultures is added 50 μl of the test drug solution and 50 μl of virus suspension. Cell controls containing medium alone, virus-infected controls containing medium and virus, drug cytotoxicity controls containing medium and each drug concentration, reagent controls containing culture medium only (no cells), and drug calorimetric controls containing drug and medium (no cells) are run simultaneously with the test samples. The plates are incubated at 37° C. in a humidified atmosphere containing 5% CO2 until maximum CPE is observed in the untreated virus control cultures (Day 5). CPE inhibition is determined by a dye (MTS) uptake procedure. […] The purple color of the MTS formazan is then measured spectrophotometrically at 490/650 nm. […]

[5] = test system: herpes simplex virus type 1 (strain HF); test: HSV-1 cytopathic effect (CPE) inhibition assay in Vero cells (MTS); type: cell-based
From the text: as §1

[6] = test system: HBV; test: HBV replication in chronically infected HepG2 2.2.15 cells (TaqMan PCR of HBV DNA); type: cell-based, Hepatitis B virus; conditions: for IC50: chronically HBV-infected HepG2 2.2.15 cells
Description: (§2) Human HepG2-2.2.15 cells (ATCC Cat. No. CRL-11997), chronically infected with HBV, are plated in 96-well microtiter plates in DMEM medium supplemented with fetal bovine serum. After incubation at 37° C. in a humidified, 5% CO2 environment for 16-24 hours, the monolayer of HepG2-2.2.15 cells is washed and the medium is replaced with complete medium containing various concentrations of test compound. Every three days during the experiments, the culture medium is replaced with fresh medium containing the appropriately diluted test compound. Six days following the initial administration of the test compound, the cell culture supernatant is collected and clarified by centrifugation. The cell viability is evaluated by a dye uptake procedure (Promega's Cell Titer Aqueous One Solution). Virion-associated HBV DNA present in the tissue culture supernatant is amplified employing PCR technology using primer pairs derived from the HBV strain ayw. Subsequently, the PCR-amplified HBV DNA is detected in real-time by monitoring increases in fluorescence signals that result from exonucleolytic degradation of a quenched fluorescent probe molecule following hybridization of the probe to the amplified HBV DNA (TaqMan; Perkin-Elmer).

[7] = test system: Lamivudine-resistant, mutant HBV; test: Transfected Lamivudine-resistant mutant HBV production in HepG2 cells; type: cell-based, Hepatitis B virus
Description: as §2
The same type of experiments was additionally performed with a mutant, Lamivudine-resistant HBV strain, which was transfected into HepG2 cells. […]

Structure (SMILES): CC(=NNC(=N)N)c1cc(NC(=O)CCCCCCCCC(=O)Nc2cc(C(C)=NNC(=N)N)cc(C(C)=NNC(=N)N)c2)cc(C(C)=NNC(=N)N)c1 [Compound 4, N,N′-bis (3,5-diacetylphenyl) decane diamide tetrakis (amidinohydrazone)]
- [%] inhibition of virus replication ([1]; NRTI + PI-resistant HIV-1, 0.5 μM): 68%
- [%] inhibition of virus replication ([1]; NRTI + PI-resistant HIV-1, 1.0 μM): 73%
- cellular toxicities at effective antiviral dosages ([2]; HIV cellular systems): without apparent cellular toxicities
- inhibition of HIV replication ([2]; T-cell-tropic, macrophage-tropic, primary patient isolates, multidrug-resistant HIV strains): submicromolar range
- CC50 [3]: 13.6 µM
- CC50 [4]: 20.6 µM
- Comments ([5]; HSV-1, Vero cells): Active
- IC50 ([5]; HSV-infected Vero cells, reduces the CPE by 50%): 1.56 µM
- Comments ([6]; HBV, HepG2 2.2.15 cells): Active
- IC50 ([6]; six days, read-out: IC50 (μM) Virion-DNA): 3.19 µM
- IC50 ([6]; read-out: IC50 (μM) Intracellular Viral DNA): 4.96 µM
- Comments ([7]; Lamivudine-resistant mutant HBV): Active
- IC50 ([7]; Lamivudine-resistant mutant HBV transfected into HepG2 cells, read-out: IC50 (μM) Virion-DNA): 2.78 µM
